Reference: patent publication US12723063B2, “GIPR-agonist compounds” (Eli Lilly and Company, priority 2019, dated 2026)
*1 amine or outer side, *2 acyl side, *3 side chain or, on linkers, in order; H or OH if unused. Where a SMILES comes first, the peptide text is derived from it. Side-chain parts run from the residue outwards. [ ]: non-standard residue; d: D form. The star is where a group is joined. C20 diacid = O=C(O)CCCCCCCCCCCCCCCCCCC(=O)*; C18 diacid = O=C(O)CCCCCCCCCCCCCCCCC(=O)*; αMePhe(2-F) = C[C@](N)(Cc1ccccc1F)C(=O)O; γGlu = O=C(O)[C@H](CCC(=O)[*:2])N[*:1]; 4Pal = N[C@@H](Cc1ccncc1)C(=O)O; αMeL = CC(C)C[C@](C)(N)C(=O)O; Iva = CC[C@](C)(N)C(=O)O; Orn = NCCC[C@H](N)C(=O)O; AEEA = NCCOCCOCC(=O)O; Aib = CC(C)(N)C(=O)O

Molecular target: T1, human GcgR (Homo sapiens, UniProt P47871)
T1 construct: expressed in transfected cells; crude membranes
T1 sequence (P47871 26-477): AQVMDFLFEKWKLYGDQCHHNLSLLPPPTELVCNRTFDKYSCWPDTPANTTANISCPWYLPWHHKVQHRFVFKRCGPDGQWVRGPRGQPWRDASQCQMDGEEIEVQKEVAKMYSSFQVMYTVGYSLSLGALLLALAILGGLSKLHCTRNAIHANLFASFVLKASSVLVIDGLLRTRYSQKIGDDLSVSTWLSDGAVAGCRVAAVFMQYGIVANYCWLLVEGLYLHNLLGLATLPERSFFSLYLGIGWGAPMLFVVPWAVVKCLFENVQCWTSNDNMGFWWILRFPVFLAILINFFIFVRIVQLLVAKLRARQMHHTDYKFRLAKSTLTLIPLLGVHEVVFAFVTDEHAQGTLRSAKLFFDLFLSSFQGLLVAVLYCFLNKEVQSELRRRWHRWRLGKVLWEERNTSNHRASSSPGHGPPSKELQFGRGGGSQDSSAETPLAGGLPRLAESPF
Assay: [125I]-Glucagon binding, SPA with WGA beads, 0.1% bacitracin
Settings: geometric mean, read-out: hGcgR Ki
Outline: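 SPA competition binding with WGA beads on crude membranes from HEK293 cells stably expressing hGcgR. Buffer: 25 mM HEPES pH 7.4, 2.5 mM CaCl2, 1 mM MgCl2, 0.1% bacitracin, 0.003% Tween-20; 10-point 3-fold dilutions, NSB with 1 μM Gcg.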

Which Ki does the source give for `CC[C@H](C)[C@H](NC(=O)[C@H](CO)NC(=O)[C@H](Cc1ccc(O)cc1)NC(=O)[C@H](CC(=O)O)NC(=O)[C@H](CO)NC(=O)[C@@H](NC(=O)[C@](C)(Cc1ccccc1F)NC(=O)[C@@H](NC(=O)CNC(=O)[C@H](CCC(=O)O)NC(=O)C(C)(C)NC(=O)[C@@H](N)Cc1ccc(O)cc1)[C@@H](C)O)[C@@H](C)CC)C(=O)N[C@@H](C)C(=O)N[C@@H](CC(C)C)C(=O)N[C@@H](CC(=O)O)C(=O)N[C@@H](CCCCN)C(=O)N[C@H](C(=O)N[C@@H](Cc1c[nH]cn1)C(=O)N[C@@H](CCC(N)=O)C(=O)NC(C)(C)C(=O)N[C@@H](CCC(=O)O)C(=O)N[C@@H](Cc1ccccc1)C(=O)N[C@H](C(=O)N[C@@H](CC(N)=O)C(=O)N[C@@H](Cc1ccc(O)cc1)C(=O)N[C@@H](CCCCNC(=O)COCCOCCNC(=O)COCCOCCNC(=O)CC[C@H](NC(=O)CCCCCCCCCCCCCCCCCCC(=O)O)C(=O)O)C(=O)N[C@@H](CC(C)C)C(=O)N[C@@H](C)C(=O)NCC(=O)NCC(=O)N1CCC[C@H]1C(=O)N[C@@H](CO)C(=O)N[C@@H](CO)C(=O)NCC(=O)N[C@@H](C)C(=O)N1CCC[C@H]1C(=O)N1CCC[C@H]1C(=O)N1CCC[C@H]1C(=O)N[C@@H](CO)C(N)=O)C(C)C)[C@@H](C)CC` [Example 98] (H-Y[Aib]EGT[αMePhe(2-F)]ISDYSIALDKIHQ[Aib]EFVNYK([AEEA-AEEA-γGlu-C20 diacid])LAGGPSSGAPPPS-NH2) here?
Its Ki is 38.4 nM.

How did the Ki turn out when `CC[C@H](C)[C@H](NC(=O)[C@H](CO)NC(=O)[C@H](Cc1ccc(O)cc1)NC(=O)[C@H](CC(=O)O)NC(=O)[C@H](CO)NC(=O)[C@@H](NC(=O)[C@H](Cc1ccccc1)NC(=O)[C@@H](NC(=O)CNC(=O)[C@H](CCC(=O)O)NC(=O)[C@@H](C)NC(=O)[C@@H](N)Cc1ccc(O)cc1)[C@@H](C)O)[C@@H](C)CC)C(=O)N[C@@H](CC(C)C)C(=O)N[C@@H](CC(C)C)C(=O)N[C@@H](CC(=O)O)C(=O)N[C@@H](CCCCN)C(=O)N[C@@H](CCCCNC(=O)COCCOCCNC(=O)COCCOCCNC(=O)CC[C@H](NC(=O)CCCCCCCCCCCCCCCCCCC(=O)O)C(=O)O)C(=O)N[C@@H](Cc1c[nH]cn1)C(=O)N[C@@H](CCC(N)=O)C(=O)N[C@@H](CCC(N)=O)C(=O)N[C@@H](CC(=O)O)C(=O)N[C@@H](Cc1ccccc1)C(=O)N[C@H](C(=O)N[C@@H](CC(N)=O)C(=O)N[C@@H](Cc1c[nH]c2ccccc12)C(=O)N[C@@H](CC(C)C)C(=O)N[C@@H](CC(C)C)C(=O)N[C@@H](C)C(=O)NCC(=O)NCC(=O)N1CCC[C@H]1C(=O)N[C@@H](CO)C(=O)N[C@@H](CO)C(=O)NCC(=O)N[C@@H](C)C(=O)N1CCC[C@H]1C(=O)N1CCC[C@H]1C(=O)N1CCC[C@H]1C(=O)N[C@@H](CO)C(N)=O)C(C)C` [Example 10] (H-Y[dA]EGTFISDYSILLDKK([AEEA-AEEA-γGlu-C20 diacid])HQQDFVNWLLAGGPSSGAPPPS-NH2) was run?
Its Ki is > 230 nM.

For `CC[C@H](C)[C@H](NC(=O)[C@H](Cc1ccccc1)NC(=O)[C@@H](NC(=O)CNC(=O)[C@H](CCC(=O)O)NC(=O)C(C)(C)NC(=O)[C@@H](N)Cc1ccc(O)cc1)[C@@H](C)O)C(=O)N[C@@H](CO)C(=O)N[C@@H](CC(=O)O)C(=O)N[C@@H](Cc1ccc(O)cc1)C(=O)N[C@@H](CO)C(=O)N[C@H](C(=O)N[C@@](C)(CC(C)C)C(=O)N[C@@H](CC(C)C)C(=O)N[C@@H](CC(=O)O)C(=O)N[C@@H](CCC(=O)O)C(=O)N[C@@H](CCCCNC(=O)COCCOCCNC(=O)COCCOCCNC(=O)CC[C@H](NC(=O)CCCCCCCCCCCCCCCCCCC(=O)O)C(=O)O)C(=O)N[C@@H](Cc1c[nH]cn1)C(=O)N[C@@H](CCC(N)=O)C(=O)NC(C)(C)C(=O)N[C@@H](CC(=O)O)C(=O)N[C@@H](Cc1ccccc1)C(=O)N[C@H](C(=O)N[C@@H](CCC(=O)O)C(=O)N[C@@H](Cc1ccncc1)C(=O)N[C@@H](CC(C)C)C(=O)N[C@@H](CC(C)C)C(=O)N[C@@H](C)C(=O)N[C@H](C(=O)NCC(=O)N1CCC[C@H]1C(=O)N[C@@H](CO)C(=O)N[C@@H](CO)C(=O)NCC(=O)N[C@@H](C)C(=O)N1CCC[C@H]1C(=O)N1CCC[C@H]1C(=O)N1CCC[C@H]1C(=O)N[C@@H](CO)C(N)=O)[C@@H](C)O)C(C)C)[C@@H](C)CC` [Example 83] (H-Y[Aib]EGTFISDYSI[αMeL]LDEK([AEEA-AEEA-γGlu-C20 diacid])HQ[Aib]DFVE[4Pal]LLATGPSSGAPPPS-NH2), which Ki is on record?
The Ki was > 958 nM.

`CC[C@H](C)[C@H](NC(=O)[C@H](Cc1ccccc1)NC(=O)[C@@H](NC(=O)CNC(=O)[C@H](CCC(=O)O)NC(=O)C(C)(C)NC(=O)[C@@H](N)Cc1ccc(O)cc1)[C@@H](C)O)C(=O)N[C@@H](CO)C(=O)N[C@@H](CC(=O)O)C(=O)N[C@@H](Cc1ccc(O)cc1)C(=O)N[C@@H](CO)C(=O)N[C@H](C(=O)N[C@@](C)(CC(C)C)C(=O)N[C@@H](CC(C)C)C(=O)N[C@@H](CC(=O)O)C(=O)N[C@@H](CCCN)C(=O)N[C@@H](CCCCNC(=O)COCCOCCNC(=O)COCCOCCNC(=O)CC[C@H](NC(=O)CCCCCCCCCCCCCCCCCCC(=O)O)C(=O)O)C(=O)N[C@@H](Cc1c[nH]cn1)C(=O)N[C@@H](CCC(N)=O)C(=O)NC(C)(C)C(=O)N[C@@H](CC(=O)O)C(=O)N[C@@H](Cc1ccccc1)C(=O)N[C@H](C(=O)N[C@@H](CCC(=O)O)C(=O)N[C@@H](Cc1ccncc1)C(=O)N[C@@H](CC(C)C)C(=O)N[C@@H](CC(C)C)C(=O)N[C@@H](CCC(=O)O)C(=O)N[C@@H](CCC(N)=O)C(=O)NCC(=O)N1CCC[C@H]1C(=O)N[C@@H](CO)C(=O)N[C@@H](CO)C(=O)NCC(=O)N[C@@H](C)C(=O)N1CCC[C@H]1C(=O)N1CCC[C@H]1C(=O)N1CCC[C@H]1C(=O)N[C@@H](CO)C(N)=O)C(C)C)[C@@H](C)CC` [Example 81] (H-Y[Aib]EGTFISDYSI[αMeL]LD[Orn]K([AEEA-AEEA-γGlu-C20 diacid])HQ[Aib]DFVE[4Pal]LLEQGPSSGAPPPS-NH2) was tested. Which Ki did it give?
Its Ki is 699 nM.

For `CC[C@H](C)[C@H](NC(=O)[C@H](CO)NC(=O)[C@H](Cc1ccc(O)cc1)NC(=O)[C@H](CC(=O)O)NC(=O)[C@H](CO)NC(=O)[C@@H](NC(=O)[C@H](Cc1ccccc1)NC(=O)[C@@H](NC(=O)CNC(=O)[C@H](CCC(=O)O)NC(=O)C(C)(C)NC(=O)[C@@H](N)Cc1ccc(O)cc1)[C@@H](C)O)[C@@H](C)CC)C(=O)N[C@@H](CC(C)C)C(=O)N[C@@H](CC(C)C)C(=O)N[C@@H](CC(=O)O)C(=O)N[C@@H](CCCCN)C(=O)N[C@@H](CCCCNC(=O)COCCOCCNC(=O)COCCOCCNC(=O)CC[C@H](NC(=O)CCCCCCCCCCCCCCCCC(=O)O)C(=O)O)C(=O)N[C@@H](Cc1c[nH]cn1)C(=O)N[C@@H](CCC(N)=O)C(=O)NC(C)(C)C(=O)N[C@@H](CC(=O)O)C(=O)N[C@@H](Cc1ccccc1)C(=O)N[C@H](C(=O)N[C@@H](CC(N)=O)C(=O)N[C@@H](Cc1ccc(O)cc1)C(=O)N[C@@H](CC(C)C)C(=O)N[C@@H](CC(C)C)C(=O)N[C@@H](C)C(=O)N[C@@H](C)C(=O)NCC(=O)N1CCC[C@H]1C(=O)N[C@@H](CO)C(=O)N[C@@H](CO)C(=O)NCC(=O)N[C@@H](C)C(=O)N1CCC[C@H]1C(=O)N1CCC[C@H]1C(=O)N1CCC[C@H]1C(=O)N[C@@H](CO)C(N)=O)C(C)C` [Example 31] (H-Y[Aib]EGTFISDYSILLDKK([AEEA-AEEA-γGlu-C18 diacid])HQ[Aib]DFVNYLLAAGPSSGAPPPS-NH2), which Ki is on record?
The Ki was > 959 nM.

`CC[C@H](C)[C@H](NC(=O)[C@H](CO)NC(=O)[C@H](Cc1ccc(O)cc1)NC(=O)[C@H](CC(=O)O)NC(=O)[C@H](CO)NC(=O)[C@@H](NC(=O)[C@H](Cc1ccccc1)NC(=O)[C@@H](NC(=O)CNC(=O)[C@H](CCC(=O)O)NC(=O)C(C)(C)NC(=O)[C@@H](N)Cc1ccc(O)cc1)[C@@H](C)O)[C@@H](C)CC)C(=O)N[C@@H](CC(C)C)C(=O)N[C@@H](CC(C)C)C(=O)N[C@@H](CC(=O)O)C(=O)N[C@@H](CCCCN)C(=O)N[C@@H](CCCCNC(=O)COCCOCCNC(=O)COCCOCCNC(=O)CC[C@H](NC(=O)CCCCCCCCCCCCCCCCCCC(=O)O)C(=O)O)C(=O)N[C@@H](C)C(=O)N[C@@H](CCC(N)=O)C(=O)NC(C)(C)C(=O)N[C@@H](CC(=O)O)C(=O)N[C@@H](Cc1ccccc1)C(=O)N[C@H](C(=O)N[C@@H](CC(N)=O)C(=O)N[C@@H](Cc1c[nH]c2ccccc12)C(=O)N[C@@H](CC(C)C)C(=O)N[C@@H](CC(C)C)C(=O)N[C@@H](C)C(=O)N[C@@H](CCC(N)=O)C(=O)NCC(=O)N1CCC[C@H]1C(=O)N[C@@H](CO)C(=O)N[C@@H](CO)C(=O)NCC(=O)N[C@@H](C)C(=O)N1CCC[C@H]1C(=O)N1CCC[C@H]1C(=O)N1CCC[C@H]1C(=O)N[C@@H](CO)C(N)=O)C(C)C` [Example 8] (H-Y[Aib]EGTFISDYSILLDKK([AEEA-AEEA-γGlu-C20 diacid])AQ[Aib]DFVNWLLAQGPSSGAPPPS-NH2) was tested. Which Ki did it give?
The Ki was 101 nM.

For `CC[C@H](C)[C@H](NC(=O)[C@H](CO)NC(=O)[C@H](Cc1ccc(O)cc1)NC(=O)[C@H](CC(=O)O)NC(=O)[C@H](CO)NC(=O)[C@@H](NC(=O)[C@](C)(CC)NC(=O)[C@@H](NC(=O)CNC(=O)[C@H](CCC(=O)O)NC(=O)C(C)(C)NC(=O)[C@@H](N)Cc1ccc(O)cc1)[C@@H](C)O)[C@@H](C)CC)C(=O)N[C@@](C)(CC(C)C)C(=O)N[C@@H](CC(C)C)C(=O)N[C@@H](CC(=O)O)C(=O)N[C@@H](CCCN)C(=O)N[C@@H](CCCCNC(=O)COCCOCCNC(=O)COCCOCCNC(=O)CC[C@H](NC(=O)CCCCCCCCCCCCCCCCCCC(=O)O)C(=O)O)C(=O)N[C@@H](Cc1c[nH]cn1)C(=O)N[C@@H](CCC(N)=O)C(=O)NC(C)(C)C(=O)N[C@@H](CC(=O)O)C(=O)N[C@@H](Cc1ccccc1)C(=O)N[C@H](C(=O)N[C@@H](CCC(=O)O)C(=O)N[C@@H](Cc1ccncc1)C(=O)N[C@@H](CC(C)C)C(=O)N[C@@H](CC(C)C)C(=O)N[C@@H](CCC(=O)O)C(=O)NCC(=O)NCC(=O)N1CCC[C@H]1C(=O)N[C@@H](CO)C(=O)N[C@@H](CO)C(=O)NCC(=O)N[C@@H](C)C(=O)N1CCC[C@H]1C(=O)N1CCC[C@H]1C(=O)N1CCC[C@H]1C(=O)N[C@@H](CO)C(N)=O)C(C)C` [Example 76] (H-Y[Aib]EGT[Iva]ISDYSI[αMeL]LD[Orn]K([AEEA-AEEA-γGlu-C20 diacid])HQ[Aib]DFVE[4Pal]LLEGGPSSGAPPPS-NH2), which Ki is on record?
Its Ki is 358 nM.
